Laboratory results published in PMC9411704, “Assessment of the Carcinogenic Potential of Pretomanid in Transgenic Tg.rasH2 Mice” (International Journal of Toxicology, 2022).
Entries after “also recorded” stand apart in the source; their conditions may differ.

Assays:
[1] = Toxicokinetic assessment in wild-type CByB6F1 mice (Day 14); assay type: in vivo; details: for Mouse M50 AUC0-24 as multiple of estimated human M50 AUC0-24: highest dose, human 200 mg/day
Description: TK animals were included for the vehicle control (n = 4 sex) and pretomanid-treated groups (n = 10 sex/group). The TK cohort animals were dosed by oral gavage once daily for 14 consecutive days.
Toxicokinetic blood samples (300 μL for males and 250 μL for females) were collected in K3EDTA tubes after 14 doses from the TK cohort via retro-orbital bleeding under 70% CO2/30% O2 anesthesia. On Day 14, control mice were bled once 2 hours after dosing. On Day 14 and 15, Pretomanid-treated mice were bled predose, 0.5, 1, 3, 6, and 24 hours post dose. TK animals were euthanized after their final blood collection.
Collected blood was stored on wet ice until the samples were processed to plasma. Blood samples were centrifuged at 4±2°C and 8000 g for 5 minutes. Plasma was snap frozen in liquid nitrogen and stored in a deep freezer (≤−60°C) within 60 minutes of bleeding the TK animals.
Pretomanid and the M50 metabolite were quantified in mouse plasma by liquid chromatography-tandem mass spectrometry (LC-MS/MS) after protein precipitation. Aliquots of 25 µL of plasma were spiked with internal standards (PA-824-d5 or morphine) and proteins were precipitated in 1% formic acid in acetonitrile. A partial supernatant from each sample was transferred to a clean plate and diluted in acetonitrile/water (40:60) for pretomanid and deionized water for M50. Supernatant was analyzed for pretomanid or M50 using validated LC-MS/MS methods with a linear range of 20 to 10,000 ng/mL for pretomanid and 10 to 5,000 ng/mL for M50 (methods validated at Alliance Pharma, Malvern PA).
Sample collection time and plasma concentration data were analyzed to derive TK parameters by standard model independent methods based on the mean plasma concentration-time data for each dose group. The TK analyses of the plasma concentration profiles were performed using non-compartmental analysis in Phoenix WinNonlin Professional 7.0 (Certara, L.P., St. Louis, MO, USA). Concentration values below the lower limit of quantitation were treated as zeros for analysis purposes.

[2] = test system: Salmonella typhimurium TA98, TA100, TA1535, TA1537 and Escherichia coli WP2uvrA; test: Bacterial reverse mutation (Ames) assay, overall over five tester strains; assay type: cell-based; details: up to 2500 μg/plate
Description: (§1) Pretomanid and metabolite M50 were evaluated over a range of concentrations, with and without an added metabolic activation system, in five tester strains: Salmonella typhimurium histidine auxotrophs TA98, TA100, TA1535, and TA1537 [9] and the Escherichia coli tryptophan auxotroph WP2uvrA. S. typhimurium strains were received from Dr. Bruce Ames, Department of Biochemistry, University of California (Berkeley, CA). The E. coli strain was received from The National Collection of Industrial Bacteria, Torrey Research Station, Aberdeen, Scotland (United Kingdom). The metabolic activation system was a liver homogenate (S9) mix. The S9 component was prepared from male Sprague-Dawley rats that had been injected (intraperitoneally) with Aroclor^TM 1254 at 500 mg/kg, 5 days before sacrifice. The S9 mix was prepared immediately before use and contained 10% S9, 5 mM glucose-6-phosphate, 4 mM β-nicotinamide adenine dinucleotide phosphate, 8 mM MgCl2 and 33 mM KCl in a 100 mM phosphate buffer at pH 7.4. Pretomanid was tested at 0.05 to 5000 μg/plate. Metabolite M50 was tested at 78 to 2500 μg/plate. A negative (solvent) control culture and appropriate positive control cultures were included in each assay.
(§2) Bacteria were exposed to test materials by the plate incorporation method originally described by Ames et al and updated by Maron and Ames. Bottom agar was Vogel-Bonner minimal medium E [12] with 1.5% (w/v) agar, and the top Agar was 0.7% (w/v) agar and 0.5% (w/v) NaCl. After incubation, cultures were evaluated using a dissecting microscope for precipitation or cytotoxicity, and revertant colonies were counted. The mean numbers of revertant colonies in various cultures were compared to reach conclusions about assay validity and mutagenic potential. For the test article to be evaluated positive, it must cause a dose-related increase in the mean revertants per plate of at least one tester strain with a minimum of two increasing concentrations of test article.

Escherichia coli WP2uvrA = test: Bacterial reverse mutation (Ames) assay, plate incorporation
Description: as §1, §2

[3] = test system: Salmonella typhimurium TA98; test: as above; assay type: cell-based
Description: as §1, §2

[4] = test system: Salmonella typhimurium TA1537; test: as above; assay type: cell-based
Description: as §1, §2

[5] = test system: Salmonella typhimurium TA100; test: as above; assay type: cell-based
Description: as §1, §2

[6] = test system: Salmonella typhimurium TA1535; test: as above; assay type: cell-based
Description: as §1, §2

O=[N+]([O-])c1cn2c(n1)OC[C@@H](O)C2 [M50]
Exposure to M50 metabolite relative to pretomanid ([1]; all dose levels, both sexes): less than 10%
AUC(0-t) ([1]; female, CByB6F1 (wild-type), mouse, plasma, oral, 80 mg/kg/day, females, highest dose in the carcinogenicity study, read-out: Mean M50 AUC0-24): 10.2 µg·h/mL
Mouse M50 AUC0-24 as multiple of estimated human M50 AUC0-24 ([1]; females): approximately 3 X
Mean M50 AUC0-24 ([1]; males, highest dose in the carcinogenicity study): 4.6 µg·h/mL
Mouse M50 AUC0-24 as multiple of estimated human M50 AUC0-24 ([1]; males): approximately 1.5 X
Precipitate or cytotoxicity in the Ames assay ([2]; single non-GLP assay): no precipitate or cytotoxicity at any concentration
Mutagenic potential ([2]; with and without S9, non-GLP): genotoxic; also recorded: positive
Mean Number of Revertants/Plate (Escherichia coli WP2uvrA; WP2uvrA +S9, 78 μg/plate): 18 Revertants/Plate
Mean Number of Revertants/Plate (Escherichia coli WP2uvrA; WP2uvrA +S9, 156 μg/plate): 17 Revertants/Plate
Mean Number of Revertants/Plate (Escherichia coli WP2uvrA; WP2uvrA +S9, 313 μg/plate): 23 Revertants/Plate
Mean Number of Revertants/Plate (Escherichia coli WP2uvrA; WP2uvrA +S9, 625 μg/plate): 48 Revertants/Plate
Mean Number of Revertants/Plate (Escherichia coli WP2uvrA; WP2uvrA +S9, 1250 μg/plate): 50 Revertants/Plate
Mean Number of Revertants/Plate (Escherichia coli WP2uvrA; WP2uvrA +S9, 2500 μg/plate): 50 Revertants/Plate
Mean Number of Revertants/Plate (Escherichia coli WP2uvrA; WP2uvrA −S9, 78 μg/plate): 18 Revertants/Plate
Mean Number of Revertants/Plate (Escherichia coli WP2uvrA; WP2uvrA −S9, 156 μg/plate): 24 Revertants/Plate
Mean Number of Revertants/Plate (Escherichia coli WP2uvrA; WP2uvrA −S9, 313 μg/plate): 26 Revertants/Plate
Mean Number of Revertants/Plate (Escherichia coli WP2uvrA; WP2uvrA −S9, 625 μg/plate): 29 Revertants/Plate
Mean Number of Revertants/Plate (Escherichia coli WP2uvrA; WP2uvrA −S9, 1250 μg/plate): 49 Revertants/Plate
Mean Number of Revertants/Plate (Escherichia coli WP2uvrA; WP2uvrA −S9, 2500 μg/plate): 71 Revertants/Plate
Change in revertant colonies (Escherichia coli WP2uvrA; WP2uvrA, presence and absence of S9): significant increases
Mean Number of Revertants/Plate ([3]; TA98 +S9, 78 μg/plate): 18 Revertants/Plate
Mean Number of Revertants/Plate ([3]; TA98 +S9, 156 μg/plate): 19 Revertants/Plate
Mean Number of Revertants/Plate ([3]; TA98 +S9, 313 μg/plate): 22 Revertants/Plate
Mean Number of Revertants/Plate ([3]; TA98 +S9, 625 μg/plate): 25 Revertants/Plate
Mean Number of Revertants/Plate ([3]; TA98 +S9, 1250 μg/plate): 24 Revertants/Plate
Mean Number of Revertants/Plate ([3]; TA98 +S9, 2500 μg/plate): 38 Revertants/Plate
Change in revertant colonies ([3]; TA98, presence of S9): significant increases
Mean Number of Revertants/Plate ([3]; TA98 −S9, 78 μg/plate): 13 Revertants/Plate
Mean Number of Revertants/Plate ([3]; TA98 −S9, 156 μg/plate): 16 Revertants/Plate
Mean Number of Revertants/Plate ([3]; TA98 −S9, 313 μg/plate): 14 Revertants/Plate
Mean Number of Revertants/Plate ([3]; TA98 −S9, 625 μg/plate): 17 Revertants/Plate
Mean Number of Revertants/Plate ([3]; TA98 −S9, 1250 μg/plate): 21 Revertants/Plate
Mean Number of Revertants/Plate ([3]; TA98 −S9, 2500 μg/plate): 33 Revertants/Plate
Mean Number of Revertants/Plate ([4]; TA1537 +S9, 78 μg/plate): 9 Revertants/Plate
Mean Number of Revertants/Plate ([4]; TA1537 +S9, 156 μg/plate): 12 Revertants/Plate
Mean Number of Revertants/Plate ([4]; TA1537 +S9, 313 μg/plate): 8 Revertants/Plate
Mean Number of Revertants/Plate ([4]; TA1537 +S9, 625 μg/plate): 14 Revertants/Plate
Mean Number of Revertants/Plate ([4]; TA1537 +S9, 1250 μg/plate): 20 Revertants/Plate
Mean Number of Revertants/Plate ([4]; TA1537 +S9, 2500 μg/plate): 11 Revertants/Plate
Change in revertant colonies ([4]; TA1537, absence of S9): significant increases
Mean Number of Revertants/Plate ([4]; TA1537 −S9, 78 μg/plate): 8 Revertants/Plate
Mean Number of Revertants/Plate ([4]; TA1537 −S9, 156 μg/plate): 13 Revertants/Plate
Mean Number of Revertants/Plate ([4]; TA1537 −S9, 313 μg/plate): 7 Revertants/Plate
Mean Number of Revertants/Plate ([4]; TA1537 −S9, 625 μg/plate): 13 Revertants/Plate
Mean Number of Revertants/Plate ([4]; TA1537 −S9, 1250 μg/plate): 10 Revertants/Plate
Mean Number of Revertants/Plate ([4]; TA1537 −S9, 2500 μg/plate): 18 Revertants/Plate
Mean Number of Revertants/Plate ([5]; TA100 +S9, 78 μg/plate): 132 Revertants/Plate
Mean Number of Revertants/Plate ([5]; TA100 +S9, 156 μg/plate): 125 Revertants/Plate
Mean Number of Revertants/Plate ([5]; TA100 +S9, 313 μg/plate): 252 Revertants/Plate
Mean Number of Revertants/Plate ([5]; TA100 +S9, 625 μg/plate): 312 Revertants/Plate
Mean Number of Revertants/Plate ([5]; TA100 +S9, 1250 μg/plate): 666 Revertants/Plate
Mean Number of Revertants/Plate ([5]; TA100 +S9, 2500 μg/plate): 758 Revertants/Plate
Change in revertant colonies ([5]; TA100, presence and absence of S9): significant increases
Mean Number of Revertants/Plate ([5]; TA100 −S9, 78 μg/plate): 120 Revertants/Plate
Mean Number of Revertants/Plate ([5]; TA100 −S9, 156 μg/plate): 135 Revertants/Plate
Mean Number of Revertants/Plate ([5]; TA100 −S9, 313 μg/plate): 203 Revertants/Plate
Mean Number of Revertants/Plate ([5]; TA100 −S9, 625 μg/plate): 294 Revertants/Plate
Mean Number of Revertants/Plate ([5]; TA100 −S9, 1250 μg/plate): 588 Revertants/Plate
Mean Number of Revertants/Plate ([5]; TA100 −S9, 2500 μg/plate): 868 Revertants/Plate
Mean Number of Revertants/Plate ([6]; TA1535 +S9, 78 μg/plate): 12 Revertants/Plate
Mean Number of Revertants/Plate ([6]; TA1535 +S9, 156 μg/plate): 15 Revertants/Plate
Mean Number of Revertants/Plate ([6]; TA1535 +S9, 313 μg/plate): 31 Revertants/Plate
Mean Number of Revertants/Plate ([6]; TA1535 +S9, 625 μg/plate): 42 Revertants/Plate
Mean Number of Revertants/Plate ([6]; TA1535 +S9, 1250 μg/plate): 67 Revertants/Plate
Mean Number of Revertants/Plate ([6]; TA1535 +S9, 2500 μg/plate): 81 Revertants/Plate
Change in revertant colonies ([6]; TA1535, presence and absence of S9): significant increases
Mean Number of Revertants/Plate ([6]; TA1535 −S9, 78 μg/plate): 20 Revertants/Plate
Mean Number of Revertants/Plate ([6]; TA1535 −S9, 156 μg/plate): 16 Revertants/Plate
Mean Number of Revertants/Plate ([6]; TA1535 −S9, 313 μg/plate): 19 Revertants/Plate
Mean Number of Revertants/Plate ([6]; TA1535 −S9, 625 μg/plate): 24 Revertants/Plate
Mean Number of Revertants/Plate ([6]; TA1535 −S9, 1250 μg/plate): 43 Revertants/Plate
Mean Number of Revertants/Plate ([6]; TA1535 −S9, 2500 μg/plate): 60 Revertants/Plate
